Experiments:
hJAK2 = hJAK2 (Homo sapiens (Human), UniProt O60674); experiment: hJAK2 LANCE TR-FRET enzymatic assay; type: biochemical; conditions: read-out: JAK2 IC50
IKKε = IKKε (Homo sapiens (Human), UniProt Q14164); experiment: IKKε TR-FRET enzymatic assay; type: biochemical; conditions: TR-FRET, 2×Km ATP; geometric mean of minimum four determinations; read-out: IKKe IC50
TBK1 = TBK1 (Homo sapiens (Human), UniProt Q9UHD2); experiment: TBK1 TR-FRET enzymatic assay;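 further: phosphorylation of a biotinylated Ser/Thr peptide by purified full-length recombinant TBK1, read by TR-FRET after 240 min at 25 °C, IC50 is the geometric mean of at least four runs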
Sequence of TBK1 (Q9UHD2 whole entry): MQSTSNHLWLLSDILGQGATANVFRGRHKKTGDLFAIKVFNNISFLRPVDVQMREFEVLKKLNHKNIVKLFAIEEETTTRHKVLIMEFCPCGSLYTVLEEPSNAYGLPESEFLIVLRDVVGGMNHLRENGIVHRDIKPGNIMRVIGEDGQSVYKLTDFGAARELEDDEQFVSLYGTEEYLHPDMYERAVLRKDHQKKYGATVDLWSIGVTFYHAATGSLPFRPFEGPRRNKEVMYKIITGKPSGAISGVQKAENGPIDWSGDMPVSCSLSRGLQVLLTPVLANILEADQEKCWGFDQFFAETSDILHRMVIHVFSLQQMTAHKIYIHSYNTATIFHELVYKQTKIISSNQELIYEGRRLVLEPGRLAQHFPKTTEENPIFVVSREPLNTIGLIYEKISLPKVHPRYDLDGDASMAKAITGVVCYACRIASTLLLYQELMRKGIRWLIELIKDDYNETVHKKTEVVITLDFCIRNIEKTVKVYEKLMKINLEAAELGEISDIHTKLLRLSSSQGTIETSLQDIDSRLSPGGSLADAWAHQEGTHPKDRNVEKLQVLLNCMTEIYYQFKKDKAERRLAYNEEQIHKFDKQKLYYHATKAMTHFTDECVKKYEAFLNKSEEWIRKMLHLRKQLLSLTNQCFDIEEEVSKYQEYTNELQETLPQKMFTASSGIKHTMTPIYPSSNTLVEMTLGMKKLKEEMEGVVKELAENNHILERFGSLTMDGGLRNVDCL
Experimental: Enzymatic activity of IKKε and TBK1 was measured using a homogeneous time resolved fluorescence resonance energy transfer (TR-FRET) assay that monitors enzyme dependent phosphorylation of a biotinylated serine/threonine peptide substrate. […] TBK1 and IKKε were expressed and purified as full length recombinant proteins. Detection reagents for the assay were purchased from Cisbio. […] After an assay reaction time of 240 minutes at 25° C., reactions were terminated with EDTA.
All IC50 values represent geometric mean values of a minimum of four determinations.

Sequence of IKKε (Q14164 whole entry): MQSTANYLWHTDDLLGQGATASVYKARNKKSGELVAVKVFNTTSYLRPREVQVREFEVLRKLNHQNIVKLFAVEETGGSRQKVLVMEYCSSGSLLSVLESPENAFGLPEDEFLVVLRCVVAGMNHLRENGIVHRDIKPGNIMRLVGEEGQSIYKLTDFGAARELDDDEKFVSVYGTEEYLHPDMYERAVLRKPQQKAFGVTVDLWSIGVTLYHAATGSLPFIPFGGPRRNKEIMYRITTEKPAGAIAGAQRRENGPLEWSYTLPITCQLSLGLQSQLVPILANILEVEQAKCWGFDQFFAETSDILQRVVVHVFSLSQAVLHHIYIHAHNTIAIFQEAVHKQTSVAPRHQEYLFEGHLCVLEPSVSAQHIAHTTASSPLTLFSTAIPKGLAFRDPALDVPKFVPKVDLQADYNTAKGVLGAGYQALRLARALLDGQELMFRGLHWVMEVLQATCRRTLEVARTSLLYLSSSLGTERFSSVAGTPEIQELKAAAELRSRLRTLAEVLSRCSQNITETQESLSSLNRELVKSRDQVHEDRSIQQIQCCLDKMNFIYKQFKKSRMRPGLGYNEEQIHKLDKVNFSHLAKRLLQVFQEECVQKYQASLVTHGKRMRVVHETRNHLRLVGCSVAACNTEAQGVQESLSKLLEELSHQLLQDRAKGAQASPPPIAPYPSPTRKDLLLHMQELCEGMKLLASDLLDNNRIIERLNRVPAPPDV
Sequence of hJAK2 (O60674 whole entry): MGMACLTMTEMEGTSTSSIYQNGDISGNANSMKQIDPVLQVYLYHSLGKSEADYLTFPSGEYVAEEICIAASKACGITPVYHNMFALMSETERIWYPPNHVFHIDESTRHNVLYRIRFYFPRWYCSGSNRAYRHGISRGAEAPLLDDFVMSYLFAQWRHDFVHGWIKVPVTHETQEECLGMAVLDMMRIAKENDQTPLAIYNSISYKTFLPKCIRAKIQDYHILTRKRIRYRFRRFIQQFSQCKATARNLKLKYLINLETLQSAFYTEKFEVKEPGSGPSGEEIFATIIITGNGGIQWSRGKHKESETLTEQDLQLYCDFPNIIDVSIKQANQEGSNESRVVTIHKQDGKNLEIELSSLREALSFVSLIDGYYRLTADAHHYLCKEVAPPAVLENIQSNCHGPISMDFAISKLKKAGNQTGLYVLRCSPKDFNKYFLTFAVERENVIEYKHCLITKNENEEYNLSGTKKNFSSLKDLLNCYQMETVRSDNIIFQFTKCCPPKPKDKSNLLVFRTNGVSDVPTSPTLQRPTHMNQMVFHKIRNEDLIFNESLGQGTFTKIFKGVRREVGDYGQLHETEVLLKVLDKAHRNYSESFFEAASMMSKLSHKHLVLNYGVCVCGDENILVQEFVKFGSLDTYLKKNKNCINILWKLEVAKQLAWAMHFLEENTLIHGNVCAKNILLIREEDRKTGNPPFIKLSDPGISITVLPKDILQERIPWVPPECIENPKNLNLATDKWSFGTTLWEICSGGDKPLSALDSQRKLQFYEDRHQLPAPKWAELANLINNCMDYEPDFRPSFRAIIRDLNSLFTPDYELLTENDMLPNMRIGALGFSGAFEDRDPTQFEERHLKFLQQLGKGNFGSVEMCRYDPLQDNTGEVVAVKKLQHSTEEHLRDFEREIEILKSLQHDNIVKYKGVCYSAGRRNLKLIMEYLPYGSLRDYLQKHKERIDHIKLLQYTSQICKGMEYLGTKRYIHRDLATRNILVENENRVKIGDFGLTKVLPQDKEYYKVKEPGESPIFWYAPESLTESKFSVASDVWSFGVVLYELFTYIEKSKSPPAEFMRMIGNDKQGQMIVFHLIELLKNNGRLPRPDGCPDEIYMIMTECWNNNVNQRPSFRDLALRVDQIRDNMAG

IC50 (hJAK2) [nM]	IC50 (IKKε) [nM]	IC50 (TBK1) [nM]	Structure (SMILES)
110	51	22	CC1(C)CNC[C@@H](F)[C@H]1Oc1ccc(-c2ncnc(Nc3ccc(N4CCN(C5COC5)CC4)cc3)n2)cc1C#N [Example 440, 2-(((4S,5R)-5-fluoro-3,3-dimethylpiperidin-4-yl)oxy)-5-(4-((4-(4-(oxetan-3-yl)piperazin-1-yl)phenyl)amino)-1,3,5-triazin-2-yl)benzonitrile]
88	2	3	Cn1cc(C(=O)N2C[C@@H](F)[C@@H](Oc3ccc(-c4ncnc(Nc5ccc(N6CCN(C7COC7)CC6)cc5)n4)cc3C#N)C(C)(C)C2)nn1 [Example 441, 2-(((4S,5R)-5-fluoro-3,3-dimethyl-1-(1-methyl-1H-1,2,3-triazole-4-carbonyl)piperidin-4-yl)oxy)-5-(4-((4-(4-(oxetan-3-yl)piperazin-1-yl)phenyl)amino)-1,3,5-triazin-2-yl)benzonitrile]
125	3	3	CC1(C)CN(C(=O)c2ccn[nH]2)C[C@@H](F)[C@H]1Oc1ccc(-c2ncnc(Nc3ccc(N4CCN(C5COC5)CC4)cc3)n2)cc1C#N [Example 442, 2-(((4S,5R)-5-fluoro-3,3-dimethyl-1-(1H-pyrazole-5-carbonyl)piperidin-4-yl)oxy)-5-(4-((4-(4-(oxetan-3-yl)piperazin-1-yl)phenyl)amino)-1,3,5-triazin-2-yl)benzonitrile]
102	6	3	CC1(C)CN(C(=O)CCO)C[C@@H](F)[C@H]1Oc1ccc(-c2ncnc(Nc3ccc(N4CCN(C5COC5)CC4)cc3)n2)cc1C#N [Example 443, 2-(((4S,5R)-5-fluoro-1-(3-hydroxypropanoyl)-3,3-dimethylpiperidin-4-yl)oxy)-5-(4-((4-(4-(oxetan-3-yl)piperazin-1-yl)phenyl)amino)-1,3,5-triazin-2-yl)benzonitrile]
476	88	27	CC1(C)CN(C(=O)[C@@H]2CCC(=O)N2)C[C@H](F)[C@@H]1Oc1ccc(-c2ncnc(Nc3ccc(N4CCN(C5COC5)CC4)cc3)n2)cc1C#N [Example 444]
90	5	5	CC1(C)CN(C(=O)[C@@H]2CCC(=O)N2)C[C@@H](F)[C@H]1Oc1ccc(-c2ncnc(Nc3ccc(N4CCN(C5COC5)CC4)cc3)n2)cc1C#N [Example 445, 2-(((4S,5R)-5-fluoro-3,3-dimethyl-1-((S)-5-oxopyrrolidine-2-carbonyl)piperidin-4-yl)oxy)-5-(4-((4-(4-(oxetan-3-yl)piperazin-1-yl)phenyl)amino)-1,3,5-triazin-2-yl)benzonitrile]
153	33	48	N#Cc1cc(-c2ncnc(Nc3ccc(N4CCN(C5COC5)CC4)cc3)n2)ccc1OC1CNC(=O)C(F)(F)C1 (stereo not drawn) [Example 446, 2-((5,5-difluoro-6-oxopiperidin-3-yl)oxy)-5-(4-((4-(4-(oxetan-3-yl)piperazin-1-yl)phenyl)amino)-1,3,5-triazin-2-yl)benzonitrile]
15	197	65	NC(=O)c1cc(-c2ncnc(Nc3ccc(N4CCN(C5COC5)CC4)cc3)n2)ccc1OC1CNC(=O)C(F)(F)C1 (stereo not drawn) [Example 447, 2-((5,5-difluoro-6-oxopiperidin-3-yl)oxy)-5-(4-((4-(4-(oxetan-3-yl)piperazin-1-yl)phenyl)amino)-1,3,5-triazin-2-yl)benzamide]
213	84	54	N#Cc1cc(-c2ncnc(Nc3ccc(N4CCN(C5COC5)CC4)cc3)n2)ccc1O[C@H]1CCN(C(=O)c2ccnn2CCO)C[C@H]1F [Example 448, 2-(((3R,4S)-3-fluoro-1-(1-(2-hydroxyethyl)-1H-pyrazole-5-carbonyl)piperidin-4-yl)oxy)-5-(4-((4-(4-(oxetan-3-yl)piperazin-1-yl)phenyl)amino)-1,3,5-triazin-2-yl)benzonitrile]
443	59	35	CC1(C)CN(C(=O)CC#N)C[C@H](F)[C@@H]1Oc1ccc(-c2ncnc(Nc3ccc(N4CCN(C5COC5)CC4)cc3)n2)cc1C#N [Example 449, 2-(((4R,5S)-1-(2-cyanoacetyl)-5-fluoro-3,3-dimethylpiperidin-4-yl)oxy)-5-(4-((4-(4-(oxetan-3-yl)piperazin-1-yl)phenyl)amino)-1,3,5-triazin-2-yl)benzonitrile]
48	3	3	CC1(C)CN(C(=O)CC#N)C[C@@H](F)[C@H]1Oc1ccc(-c2ncnc(Nc3ccc(N4CCN(C5COC5)CC4)cc3)n2)cc1C#N [Example 450, 2-(((4S,5R)-1-(2-cyanoacetyl)-5-fluoro-3,3-dimethylpiperidin-4-yl)oxy)-5-(4-((4-(4-(oxetan-3-yl)piperazin-1-yl)phenyl)amino)-1,3,5-triazin-2-yl)benzonitrile]
23	1	3	Cc1n[nH]c(C(=O)N2CC[C@H](Oc3ccc(-c4ncnc(Nc5ccc(N6CCN(C7COC7)CC6)cc5)n4)cc3C#N)C(F)(F)C2)n1 [Example 452, (S)-2-((3,3-difluoro-1-(3-methyl-1H-1,2,4-triazole-5-carbonyl)piperidin-4-yl)oxy)-5-(4-((4-(4-(oxetan-3-yl)piperazin-1-yl)phenyl)amino)-1,3,5-triazin-2-yl)benzonitrile]
≥ 1000	577	39	N#Cc1cc(-c2ncnc(Nc3cnn(C(F)F)c3)n2)ccc1O[C@H]1CCNC[C@H]1F [Example 453, 5-(4-((1-(difluoromethyl)-1H-pyrazol-4-yl)amino)-1,3,5-triazin-2-yl)-2-(((3R,4S)-3-fluoropiperidin-4-yl)oxy)benzonitrile]
223	61	23	CC(C)(C)n1cc(Nc2ncnc(-c3ccc(O[C@H]4CCN(C(=O)CCO)C[C@H]4F)c(C#N)c3)n2)cn1 [Example 458, 5-(4-((1-(tert-butyl)-1H-pyrazol-4-yl)amino)-1,3,5-triazin-2-yl)-2-(((3R,4S)-3-fluoro-1-(3-hydroxypropanoyl)piperidin-4-yl)oxy)benzonitrile]
108	22	11	CC(C)(C)n1cc(Nc2ncnc(-c3ccc(O[C@H]4CCN(C(=O)CC#N)C[C@H]4F)c(C#N)c3)n2)cn1 [Example 459, 5-(4-((1-(tert-butyl)-1H-pyrazol-4-yl)amino)-1,3,5-triazin-2-yl)-2-(((3R,4S)-1-(2-cyanoacetyl)-3-fluoropiperidin-4-yl)oxy)benzonitrile]
131	1	2	C[C@H](O)C(=O)N1CC[C@H](Oc2ccc(-c3ncnc(Nc4ccc(N5CCO[C@@H](CO)C5)cc4)n3)cc2C#N)C(F)(F)C1 [Example 460, 2-(((S)-3,3-difluoro-1-((S)-2-hydroxypropanoyl)piperidin-4-yl)oxy)-5-(4-((4-((R)-2-(hydroxymethyl)morpholino)phenyl)amino)-1,3,5-triazin-2-yl)benzonitrile]
930	63	16	CC(C)[C@H](O)C(=O)N1CC[C@H](Oc2ccc(-c3ncnc(Nc4ccc(N5CCN(C6COC6)CC5)cc4)n3)cc2C#N)[C@H](F)C1 [Example 461, 2-(((3R,4S)-3-fluoro-1-((S)-2-hydroxy-3-methylbutanoyl)piperidin-4-yl)oxy)-5-(4-((4-(4-(oxetan-3-yl)piperazin-1-yl)phenyl)amino)-1,3,5-triazin-2-yl)benzonitrile]
≥ 1000	4	3	C[C@H](O)C(=O)N1CC[C@H](Oc2ccc(-c3ncnc(Nc4ccc(N5CCN(C6COC6)CC5=O)cc4)n3)cc2C#N)[C@H](F)C1 [Example 462, 2-(((3R,4S)-3-fluoro-1-((S)-2-hydroxypropanoyl)piperidin-4-yl)oxy)-5-(4-((4-(4-(oxetan-3-yl)-2-oxopiperazin-1-yl)phenyl)amino)-1,3,5-triazin-2-yl)benzonitrile]
272	68	30	Cn1cc(C(O)C(=O)N2CC[C@H](Oc3ccc(-c4ncnc(Nc5ccc(N6CCN(C7COC7)CC6)cc5)n4)cc3C#N)[C@H](F)C2)cn1 (stereo partly drawn) [Example 463, 2-(((3R,4S)-3-fluoro-1-(2-hydroxy-2-(1-methyl-1H-pyrazol-4-yl)acetyl)piperidin-4-yl)oxy)-5-(4-((4-(4-(oxetan-3-yl)piperazin-1-yl)phenyl)amino)-1,3,5-triazin-2-yl)benzonitrile]
706	364	146	CC(C)[C@@H](O)C(=O)N1CC[C@H](Oc2ccc(-c3ncnc(Nc4ccc(N5CCN(C6COC6)CC5)cc4)n3)cc2C#N)[C@H](F)C1 [Example 465, 2-(((3R,4S)-3-fluoro-1-((R)-2-hydroxy-3-methylbutanoyl)piperidin-4-yl)oxy)-5-(4-((4-(4-(oxetan-3-yl)piperazin-1-yl)phenyl)amino)-1,3,5-triazin-2-yl)benzonitrile]
171	4	4	N#CCC(=O)N1CC[C@H](Oc2ccc(-c3ncnc(Nc4ccc(N5CCO[C@@H](CO)C5)cc4)n3)cc2C#N)[C@H](F)C1 [Example 467, 2-(((3R,4S)-1-(2-cyanoacetyl)-3-fluoropiperidin-4-yl)oxy)-5-(4-((4-((R)-2-(hydroxymethyl)morpholino)phenyl)amino)-1,3,5-triazin-2-yl)benzonitrile]
486	2	3	C[C@H](O)C(=O)N1CC[C@H](Oc2ccc(-c3ncnc(Nc4ccc(N5CCN(C6COC6)[C@@H](CO)C5)cc4)n3)cc2C#N)[C@H](F)C1 [Example 468, 2-(((3R,4S)-3-fluoro-1-((S)-2-hydroxypropanoyl)piperidin-4-yl)oxy)-5-(4-((4-((R)-3-(hydroxymethyl)-4-(oxetan-3-yl)piperazin-1-yl)phenyl)amino)-1,3,5-triazin-2-yl)benzonitrile]

From patent publication US10040781B2, “Tank-binding kinase inhibitor compounds” (Gilead Sciences, Inc., priority 2014, dated 2018)
